The subject of data set [1] is P. aeruginosa clinical isolates from patients with cystic fibrosis. Put plainly: Resazurin staining of biofilm microcolonies from clinical isolates. To be noted: for Altered metabolism with treatment (% of isolates) / Metabolism change (% from baseline): 0.5-1.25 ug/ml, 24 hours.
Protocol: Cultures of interest were thawed and streaked out on blood agar plates and allowed to grow at 37° C., 5% CO2 for 12-24 hours until suitable growth was achieved to enable further culturing. An isolated colony was looped into 5 ml of LB broth and incubated overnight at 37° C., 5% CO2.
Stock cultures were diluted 1:1000 in 1% of appropriate media (LB for mucoid P. aeruginosa strains; M63 medium was used for P. aeruginosa rough strains 001-11R; PMM for all other strains) to achieve approximately 10^8 cfu/ml (confirmed by measuring 0.02 absorbance units, approximately 1.8 ul in 2 ml of media). Diluted working cultures were mixed well and seeded at 200 ul/well across a 96 well microtitre plate, with biofilm formation complete approximately 24-48 hours following seeding.
Treatments were completed in duplicate for all bacterial strains across the dose range used.
Viable cells reduce the blue resazurin dye to the pink-fluorescent resorufin form. Following incubation fluorescence was quantified by excitation wavelength of 540 nm and an emission wavelength of 590 nm using Enspire microplate reader.
The subject of data set [2] is Pseudomonas aeruginosa (WACC91 and PA-001) biofilm. Put plainly: Crystal violet staining of biofilm-protected P. aeruginosa microcolonies. The data set is classed as cell-based. The procedure:
Laboratory strains of Pseudomonas aeruginosa (WACC91 and PA-001) were thawed (stored as 50% glycerol stocks at −70° C.+2° C.) and streaked out on blood agar plates. […] In this case cultures were propagated to stationary phase to induce stress responses needed to induce biofilm formation on seeding for treatment. […] Biofilm formation was complete approximately 24-48 hours following seeding, this was confirmed by a minimum of 1.8 absorbance units at 600 nm. Prebiotic solution collected from C1 was applied to B0 cultures that had achieved biofilm formation. A 10 dose dilution series of the prebiotic test solution in PMM was prepared (Table 2) to determine the optimal dose range for biofilm disruption of B0 cultures, with 50 μl total volume added to each B0 culture. […] The CV stain was solubilised with 125 ul of 30% acetic acid and absorbance to indicate biofilm density (also referred to as biofilm biomass) was quantified at 550 nm following an incubation of 15 minutes at room temperature. […] Biofilm formation was complete approximately 24-48 hours following seeding as confirmed by a minimum of 1.8 absorbance units at 600 nm. […] The CV stain was solubilised with 125 ul of 30% acetic acid and absorbance to indicate biofilm biomass quantified at 550 nm following an incubation of 15 minutes.

The test system of data set [3] is E. coli (ATCC 25922). The experiment in a line: Antimicrobial activity on planktonic bacteria, flow cytometry and broth microdilution. To be noted: for MIC: Escherichia coli, ATCC25922, read-out: minimum inhibitory concentration (MIC); for concentration at which first significant phenotypic change (decrease in SYTO 9 fluorescence) was observed: flow cytometry, 3 hours.
Protocol: (§3) This was undertaken in parallel with a conventional broth microdilution (BMD) assay.
(§4) Two-fold serial dilutions of D- or L-lactate were performed in a 96-well plate, ranging from 0.008 grams per litre to 8 g/L with a volume of 50 μL per well.
(§5) The bacterial suspensions were prepared from cultures grown overnight in trypticase soya broth (TSB). Each culture was diluted 1:1000 in Hanks buffered saline solution (HBSS), stained with 1 μL of SYTO® 9, incubated for a minimum of 8 minutes with shaking, and enumerated by flow cytometry. The TSB cultures were then adjusted to 2×10^5 cells per mL in CAMHB.
(§6) To the replicate dilution series of lactic acids, 50 μL of bacterial suspension was added for a final volume of 100 μL per well, each row containing a concentration gradient ranging from 0.004 to 4 g/L. There were 3 organisms per plate (E. coli, P. aeruginosa, S. aureus), set up in duplicate. […] These wells were representative of the suspension density at the time of inoculation.
(§7) For conventional BMD, the incubation time was 24 hours. For flow cytometry, the incubation time was 3 hours. For flow cytometry, following incubation 100 μL of HBSS, containing SYTO® 9 at a concentration of 10 μM was added to each well of the plate for a final dye concentration of 5 μM. The plates were then incubated at ambient temperature in the dark for 10 minutes, loaded onto the Attune™ Autosampler, and the data acquired. The plates were run simultaneously on two different Attune™ cytometers.

Data set [4] deals with P. aeruginosa clinical isolates from patients with cystic fibrosis. The experiment in a line: Crystal violet staining of biofilm microcolonies from clinical isolates. The data set is classed as cell-based. To be noted: for Biofilm breakdown (% from baseline) / Isolates responsive to breakdown (% of isolates): 0.5-1.25 ug/ml, 24 hours.
Data set [5] concerns P. aeruginosa (ATCC 27853). The experiment in a line: Antimicrobial activity on planktonic bacteria, flow cytometry and broth microdilution. The settings on record: for MIC: Pseudomonas aeruginosa, ATCC27853, read-out: minimum inhibitory concentration (MIC); for concentration at which first significant phenotypic change (decrease in SYTO 9 fluorescence) was observed: flow cytometry, 3 hours.
Protocol: as §3, §4, §5, §6, §7

Data set [6] has as its system S. aureus (ATCC 33592). The description is as above. The settings on record: for MIC: Staphylococcus aureus, ATCC33592, read-out: minimum inhibitory concentration (MIC); for concentration at which first significant phenotypic change (decrease in SYTO 9 fluorescence) was observed: flow cytometry, 3 hours.
Protocol: as §3, §4, §5, §6, §7
Data set [7] has as its system S. epidermidis biofilm. Put plainly: Crystal violet biofilm formation and mature biofilm assay. Type of data set: cell-based, Staphylococcus epidermidis. To be noted: added at t=0 (de novo forming) or t=24 hours (established), pH 7.0, FIG. 5. The protocol:
(§1) After addition of treatments, all plates were then incubated for 24 hours at 37° C.
(§2) Following incubation at room temperature for 15 minutes the microtiter plates were washed 3-4 times with water by submerging in water, with blotting to rid the plate of all excess cells and dye. Plates were left to dry overnight. The CV stain was solubilised with 125 ul of 30% acetic acid and absorbance to indicate biofilm biomass quantified at 550 nm following an incubation of 15 minutes, normalised to vehicle only.

Data set [8] has as its system Pseudomonas aeruginosa biofilm. The description is as above. The data set is classed as cell-based. The settings on record: added at t=0 (de novo forming) or t=24 hours (established), pH 7.0, FIG. 5. The protocol: as §1, §2
Data set [9] relates to Staphylococcus aureus biofilm. The data set is described as above. Type of data set: cell-based. To be noted: added at t=0 (de novo forming) or t=24 hours (established), pH 7.0, FIG. 5. The protocol:
as §1, §2

The conditions of data set [10]: cited from earlier work.
For data set [11] the following is noted: Octanol-Water; cited from earlier work.
Data set [12] has as its system Pseudomonas aeruginosa (WACC91) biofilm-protected microcolonies. Put plainly: Resazurin staining, bacterial metabolic activity of biofilm-protected cultures. Type of data set: cell-based. The procedure: Laboratory strains of Pseudomonas aeruginosa (WACC91 and PA-001) were thawed (stored as 50% glycerol stocks at −70° C.+2° C.) and streaked out on blood agar plates. […] In this case cultures were propagated to stationary phase to induce stress responses needed to induce biofilm formation on seeding for treatment.
Biofilm formation was complete approximately 24-48 hours following seeding, this was confirmed by a minimum of 1.8 absorbance units at 600 nm.
Prebiotic solution collected from C1 was applied to B0 cultures that had achieved biofilm formation. A 10 dose dilution series of the prebiotic test solution in PMM was prepared (Table 2) to determine the optimal dose range for biofilm disruption of B0 cultures, with 50 μl total volume added to each B0 culture.
A 12-fold serial dilution of tobramycin (99% pure tobramycin sulfate powder, Research Products International) standards were prepared in PMM (8 ng/ml-16 ug/ml), to act as a reference point for assessing biofilm disruption activity observed by the prebiotic test treatment (Table 2). Tobramycin is an antibiotic commonly used to treat chronic respiratory bacterial infections, particularly Pseudomonas aeruginosa. A total of 50 ul of tobramycin standards were added to B0 cultures that had achieved biofilm formation. […]

For data set [13] the following is noted: rabbit; cited from earlier work.
The conditions of data set [14]: rat, 4 h; cited from earlier work.

Converted amounts (≈) assume the structure as drawn.

As for `C[C@@H](O)C(=O)O` [D-lactic acid, (2R)-2-hydroxypropanoic acid], the figures for the “Altered metabolism with treatment (% of isolates)” value in data set [1] (Mucoid isolates) and in data set [1] (Non-mucoid isolates) were 75 % of isolates and 69.2 % of isolates, respectively. Further, the “Metabolism change (% from baseline)” value was 37 % from baseline in data set [1] (Mucoid isolates) and 46.1 % from baseline in data set [1] (Non-mucoid isolates). Moreover, in [1] (all strains tested), the “share of all strains tested showing a change in metabolic activity” value is given as “More than 65%”. Moreover, in data set [2] (pure grade standards run against prebiotic test solution dilutions, methods of Example 1), the “active dose range for biofilm disruption” value lay within 0.25 to 1.25 mg/mL. The MIC in [3], in data set [5] and in data set [6] was 4000 µg/mL (≈ 44.4 mM) in each case. For the same molecule, the “concentration at which first significant phenotypic change (decrease in SYTO 9 fluorescence) was observed” value in data set [3], in data set [5] and in data set [6] was 1 g/L in each case. The “Biofilm breakdown (% from baseline)” value in [4] (Mucoid isolates) was 17.2 % from baseline; in [4] (Non-mucoid isolates) it was 23 % from baseline. Besides, the “Isolates responsive to breakdown (% of isolates)” value is on record as 60 % of isolates in [4] (Mucoid isolates) and 53.8 % of isolates in data set [4] (Non-mucoid isolates). In addition, the “share of all strains showing evidence of biofilm disruption” value in [4] (all strains tested) was “Greater than 50%”.
With `CC(O)C(=O)O` (racemic) [racemic mix (D/L), D/L lactic acid], the “biofilm mass (crystal violet) compared to baseline” value in data set [7], in data set [8] and in data set [9] was “variable results” in each case.
On to `CCCC(O)C(=O)O` (stereo not drawn) [2-hydroxypentanoic acid], for which, in data set [10], the Water solubility is 1640 mM.
In the case of `CCC(O)C(=O)O` (stereo not drawn) [2-hydroxybutanoic acid], in data set [10], the Water solubility is 1930 mM.
`O=C(O)C(O)c1ccccc1` (stereo not drawn) [2-hydroxy-2-phenylacetic acid]: the Water solubility in data set [10] is 1140 mM. Further, the lipophilicity (Log P) in data set [11] was 0.67.
For the molecule `C[C@H](O)C(=O)O` [L-lactic acid, reference compound], the “biofilm mass (crystal violet) compared to baseline” value in data set [7], in data set [8] and in [9] was “not” each time. The MIC in [3], in data set [5] and in [6] was 4000 µg/mL (≈ 44.4 mM) in each case. The “concentration at which first significant phenotypic change (decrease in SYTO 9 fluorescence) was observed” value in data set [3], in data set [5] and in data set [6] was 1 g/L throughout.
`NC[C@H]1O[C@H](O[C@H]2[C@H](O)[C@@H](O[C@H]3O[C@H](CO)[C@@H](O)[C@H](N)[C@H]3O)[C@H](N)C[C@@H]2N)[C@H](N)C[C@@H]1O` [tobramycin]: in data set [2] (tobramycin 16 ug/ml, bioactive dose), the reduced biofilm density is 80-90%. Moreover, the “concentrations at which reduced metabolic activity was observed” value in [12] (WACC91, 24 hrs treatment, supernatants) lay within 1 to 16 µg/mL. Besides, in [12] (bioactive dose 16 ug/ml), the “inhibition of metabolic activity relative to prebiotic test solution (90%)” value is recorded as “comparable”.
As to `CCCCC(O)C(=O)O` (stereo not drawn) [2-hydroxyhexanoic acid], in [10], the Water solubility is 270 mM.
Regarding `CC(O)C(=O)O` (stereo not drawn) [2-hydroxypropanoic acid], in [13], the “LD50 Dermal” value is >2000 mg/kg (rabbit). For the same molecule, the “LC50 Inhalation” value in [14] was >7.94 mg/L (rat) 4 h.
